The results in this text go back to patent US20190369111A1, “MOLECULAR KINETICS EVALUATION METHOD AND SCREENING METHOD” (Tokyo University of Science Foundation, priority 2016, published 2019).

In the data set the target is T1, wild-type p53 protein (Mus musculus, UniProt P02340).
T1 construct: administered intraperitoneally to C57BL/6J wild-type mice; from tissue; host or cells: C57BL/6J wild-type mice: liver, kidneys, spleen, heart
Briefly: Degradation of wild-type p53 protein in each tissue of mouse after administration, Western blot analysis. It counts as in vivo. The protocol:
TIBC-CANDDY_MLN was dissolved in DMSO immediately before administration, and then dissolved in corn oil (Code No. 25606-55, Nacalai Tesque) so that the concentration of DMSO was 10 vol %, and then a dose of 50 mg/kg body weight or 100 mg/kg body weight was administered intraperitoneally to C57BL/6J wild-type mice (7 to 8 weeks old, male) (CLEA Japan, Inc.) (n=3). As a control, an injection carrier (corn oil containing 10 vol % DMSO) was used. The mice were kept under an environment of ad libitum access to food and water. The mice were dissected under deep anesthesia by Somnopentyl (Kyoritsu Seiyaku Corporation) 48 hours after administration. Abdominal section was performed, and then the liver, kidneys, spleen, and heart were sequentially extracted and flash frozen in liquid nitrogen. Each tissue frozen in liquid nitrogen was stored in a deep freezer at −80° C.
The frozen tissues (spleen: 0.02 g, other tissues: 0.04 g) were each frozen and triturated, and then 1×TKM tissue lysis buffer (50 mM triethanolamine (pH 7.8), 50 mM KCl, 5 mM MgCl2, 0.25 M sucrose, 1 mM PMSF, protein inhibitors cocktail-EDTA free (Code No. 03969-21, Nacalai Tesque), 1 mM DTT, and 5 μL/mL recombinant RNase inhibitor (40 U/μL, Cat No. 2313A, Lot No. K8402DA, TAKARA Bio)) were added in an amount of 490 μL for the spleen and 980 μL for the others, and dissolved by rotation for 15 minutes (1 rpm, 25° C.). Then, the resultant product was subjected to centrifugation (at 3000 rpm×15 minutes, 4° C.), and the supernatants (each tissue extract) was collected. The concentration of proteins in each tissue extract was quantified with a spectrophotometer using each tissue extract that had been diluted 20 times using DEPC-treated water.
Each tissue extract collected was subjected to Western blot analysis. An SDS-PAGE gel was prepared using TGX™ FastCast™ Acrylamide Kit, 12% (Bio-Rad). Electrophoresis samples were prepared in a 6×SDS-PAGE sample buffer (62.5 mM Tris-HCl pH 6.8, 2% SDS, 5% 2-mercaptoethanol, 10% glycerol, 0.25% BPB), and placed on a heat block at 95° C. for 5 minutes. The electrophoresis samples prepared were applied at 50 μg/well for detecting GAPDH, and at 100 μg/well for other detection. Electrophoresis was performed at 160 V for 60 minutes (electrophoresis buffer; 195 mM glycine, 25 mM Tris).
After electrophoresis, proteins were transferred to a PVDF membrane (Immobion™-P, Millipore) under conditions of 100 V and 1.5 hours using a tank-type blotting device and a transfer buffer (25 mM Tris-HCl, 195 mM glycine, 0.01% SDS, 15% methanol). The membrane was split into two at the position of a 25 kDa marker. The membrane after transfer was shaken and blocked in 5% skim milk/TBS-T (100 mM Tris-HCl, 150 mM NaCl, 0.1% Tween-20, pH 7.6) at room temperature for 30 minutes. After blocking, a primary antibody reaction was performed in 5% skim milk/TBS-T. As the primary antibody, an anti-p53 antibody (MAB1355, R&D Systems, Inc., diluted 500 times), an anti-MDM2 antibody (sc-965, SantaCruz, diluted 500 times), and an anti-GAPDH antibody (sc-32233, SantaCruz, diluted 20000 times) were used. The membrane was shaken at room temperature for 60 minutes, and then the membrane was washed with TBS-T for 5 minutes. […] Subsequently, the membrane was treated with a chemiluminescence reagent Immobilon™ Western (Millipore), and then chemiluminescence was detected using a lumino image analyzer LAS-3000 (FUJIFILM Corporation). Detected bands were quantified with an image processing software ImageJ (NIH).
(A western blot detects proteins with antibodies after separation by electrophoresis.)

T1 sequence (P02340 whole entry): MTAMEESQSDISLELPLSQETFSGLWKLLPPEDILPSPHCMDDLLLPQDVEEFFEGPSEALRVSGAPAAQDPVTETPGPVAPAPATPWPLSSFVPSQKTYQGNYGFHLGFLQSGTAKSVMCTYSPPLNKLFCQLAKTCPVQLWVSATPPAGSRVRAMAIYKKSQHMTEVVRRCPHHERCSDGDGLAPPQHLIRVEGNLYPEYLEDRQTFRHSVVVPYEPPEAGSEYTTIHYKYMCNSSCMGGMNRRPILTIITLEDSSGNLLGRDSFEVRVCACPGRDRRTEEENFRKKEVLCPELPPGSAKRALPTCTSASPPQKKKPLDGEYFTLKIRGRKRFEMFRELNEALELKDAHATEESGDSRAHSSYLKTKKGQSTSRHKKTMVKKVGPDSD

For the compound `CC(C)C[C@H](NC(=O)CNC(=O)c1cc(Cl)ccc1Cl)C(=O)NCCCCCCC(=O)Nc1ccc(C(=O)/C=C/c2ccc(I)cc2)cc1` [TIBC-CANDDY_MLN], the “amount of wild-type p53 protein in heart” value (intraperitoneal 50 or 100 mg/kg body weight, 48 hours after administration, heart) is recorded as “reduced in a concentration dependent manner”. Further, the “amount of wild-type p53 protein in kidneys” value (intraperitoneal 50 or 100 mg/kg body weight, 48 hours after administration, kidneys) is “reduction of the target was not found”. Besides, for the setting “intraperitoneal 50 or 100 mg/kg body weight, 48 hours after administration, spleen”, the “amount of wild-type p53 protein in spleen” value was “reduced in a concentration dependent manner”. Further, the “amount of wild-type p53 protein in liver” value (intraperitoneal, only at a dose of 100 mg/kg body weight, 48 hours after administration, liver) is on record as “reduced slightly”. Besides, the “transfer property to tissues (molecular kinetics)” value (suggested from p53 and MDM2 degradation in tissues) was “showed a higher transfer property to the heart, liver, and spleen as compared with the kidneys”.
